Experimental data published in US20130137772A1, “HYDROXYPOLYAMINE SALTS” (priority 2011, published 2013).
Values joined by “and” are separate entries in the source; they are usually repeats but may differ in a detail not shown here. Equal entries are not always repeated.

Experiment: Tissue distribution and metabolism: polyamine content of kidney, liver and pancreas via HPLC
Format: in vivo, Female CD-1 mice
Protocol: The tissue distribution and metabolism of DEHSPM, (HO)2DEHSPM HCl Salt and (HO)2DEHSPM Mesylate Salt in various organs were evaluated utilizing the following protocol:
Tissue Distribution and Metabolism of DEHSPM, (HO)2DEHSPM HCl Salt and (HO)2DEHSPM Mesylate Salt
• 1) DEHSPM, (HO)2DEHSPM HCl salt, and (HO)2DEHSPM mesylate salt were dissolved in sterile normal saline; the pH was not adjusted. • 2) Female CD-1 mice were given the drugs at equimolar dosages intraperitoneally once daily for 5 days. • 3) The animals, n=3-4 per group, were euthanized 4, 8, or 24 h post-last dose. • 4) The kidney, liver, and pancreas were removed and assessed for their polyamine content via HPLC analysis. • 5) The polyamine concentration data (mean±STD) are expressed as nmol/g wet weight of tissue. SPM, spermine; SPD, spermidine; PUT, putrescine; N.D., not determined. • 6) A one-tailed t test assuming unequal variance was performed on the tissue polyamine concentration data. A value of p<0.05 was considered significant.

[1] = kidney, 4 h post-last dose, HCl salt 20 mg/kg/d IP x 5 d
[2] = kidney, 8 h post-last dose, HCl salt 20 mg/kg/d IP x 5 d
[3] = kidney, 24 h post-last dose, HCl salt 20 mg/kg/d IP x 5 d
[4] = liver, 4 h post-last dose, HCl salt 20 mg/kg/d IP x 5 d
[5] = liver, 8 h post-last dose, HCl salt 20 mg/kg/d IP x 5 d
[6] = liver, 24 h post-last dose, HCl salt 20 mg/kg/d IP x 5 d
[7] = liver, 24 h post-last dose, HCl salt 20 mg/kg/d IP x 5 d, listed as (HO)2DEHSPM•4HCl Salt
[8] = pancreas, 4 h post-last dose, HCl salt 20 mg/kg/d IP x 5 d
[9] = pancreas, 8 h post-last dose, HCl salt 20 mg/kg/d IP x 5 d
[10] = pancreas, 24 h post-last dose, HCl salt 20 mg/kg/d IP x 5 d
[11] = kidney, 4 h post-last dose, mesylate salt 30.3 mg/kg/d IP x 5 d
[12] = kidney, 8 h post-last dose, mesylate salt 30.3 mg/kg/d IP x 5 d
[13] = kidney, 24 h post-last dose, mesylate salt 30.3 mg/kg/d IP x 5 d
[14] = liver, 4 h post-last dose, mesylate salt 30.3 mg/kg/d IP x 5 d
[15] = liver, 8 h post-last dose, mesylate salt 30.3 mg/kg/d IP x 5 d
[16] = liver, 24 h post-last dose, mesylate salt 30.3 mg/kg/d IP x 5 d
[17] = pancreas, 4 h post-last dose, mesylate salt 30.3 mg/kg/d IP x 5 d
[18] = pancreas, 8 h post-last dose, mesylate salt 30.3 mg/kg/d IP x 5 d
[19] = pancreas, 24 h post-last dose, mesylate salt 30.3 mg/kg/d IP x 5 d

CCNCCC(O)CNCCCCNCC(O)CCNCC.Cl.Cl.Cl.Cl (stereo not shown) [(HO)2DEHSPM HCl Salt]
(HO)2DEHSPM 4HCl Salt concentration [1]: 852 ± 202 nmol/g wet weight of tissue | (HO)2HSPM concentration [1]: 50 ± 19 nmol/g wet weight of tissue | PUT concentration [1]: 31 ± 27 nmol/g wet weight of tissue | SPD concentration [1]: 327 ± 86 nmol/g wet weight of tissue | SPM concentration [1]: 544 nmol/g wet weight of tissue | SPM concentration (kidney, 4 h post-last dose, HCl salt 20 mg/kg/d IP x 5 d, listed as (HO)2DEHSPM•4HCl Salt): 544 ± 14 nmol/g wet weight of tissue | (HO)2DEHSPM 4HCl Salt concentration [2]: 871 ± 85 nmol/g wet weight of tissue | (HO)2HSPM concentration [2]: 70 ± 6 nmol/g wet weight of tissue | PUT concentration [2]: 29 ± 5 nmol/g wet weight of tissue | SPD concentration [2]: 275 ± 16 nmol/g wet weight of tissue | SPM concentration [2]: 641 nmol/g wet weight of tissue | SPM concentration (kidney, 8 h post-last dose, HCl salt 20 mg/kg/d IP x 5 d, listed as (HO)2DEHSPM•4HCl Salt): 641 ± 33 nmol/g wet weight of tissue | (HO)2DEHSPM 4HCl Salt concentration [3]: 618 ± 82 nmol/g wet weight of tissue | (HO)2HSPM concentration [3]: 76 ± 7 nmol/g wet weight of tissue | PUT concentration [3]: 28 ± 6 nmol/g wet weight of tissue | SPD concentration [3]: 304 ± 30 nmol/g wet weight of tissue | SPM concentration [3]: 588 nmol/g wet weight of tissue | SPM concentration (kidney, 24 h post-last dose, HCl salt 20 mg/kg/d IP x 5 d, listed as (HO)2DEHSPM•4HCl Salt): 588 ± 5 nmol/g wet weight of tissue | (HO)2DEHSPM 4HCl Salt concentration [4]: 248 ± 17 nmol/g wet weight of tissue | (HO)2HSPM concentration [4]: 70 ± 5 nmol/g wet weight of tissue | PUT concentration [4]: 0 ± 0 nmol/g wet weight of tissue | SPD concentration [4]: 1050 ± 9 nmol/g wet weight of tissue | SPM concentration [4]: 875 nmol/g wet weight of tissue | SPM concentration (liver, 4 h post-last dose, HCl salt 20 mg/kg/d IP x 5 d, listed as (HO)2DEHSPM•4HCl Salt): 875 ± 128 nmol/g wet weight of tissue | (HO)2DEHSPM 4HCl Salt concentration [5]: 228 ± 55 nmol/g wet weight of tissue | (HO)2HSPM concentration [5]: 103 ± 14 nmol/g wet weight of tissue | PUT concentration [5]: 20 ± 17 nmol/g wet weight of tissue | SPD concentration [5]: 1175 ± 190 nmol/g wet weight of tissue | SPM concentration [5]: 1071 nmol/g wet weight of tissue | SPM concentration (liver, 8 h post-last dose, HCl salt 20 mg/kg/d IP x 5 d, listed as (HO)2DEHSPM•4HCl Salt): 1071 ± 7 nmol/g wet weight of tissue | (HO)2DEHSPM 4HCl Salt concentration [6]: 136 ±50 nmol/g wet weight of tissue | (HO)2HSPM concentration [6]: 102 ± 13 nmol/g wet weight of tissue | PUT concentration [6]: 7 ± 14 nmol/g wet weight of tissue | SPD concentration [6]: 884 ± 156 nmol/g wet weight of tissue | SPM concentration [6]: 837 nmol/g wet weight of tissue | (HO)2DEHSPM 4HCl Salt concentration [7]: 136 ± 50 nmol/g wet weight of tissue | SPM concentration [7]: 837 ± 13 nmol/g wet weight of tissue | (HO)2DEHSPM 4HCl Salt concentration [8]: 217 ± 27 nmol/g wet weight of tissue | (HO)2HSPM concentration [8]: 56 ± 11 nmol/g wet weight of tissue | PUT concentration [8]: 32 ± 3 nmol/g wet weight of tissue | SPD concentration [8]: 5868 ± 505 nmol/g wet weight of tissue | SPM concentration [8]: 1153 nmol/g wet weight of tissue and 1153 ± 159 nmol/g wet weight of tissue | (HO)2DEHSPM 4HCl Salt concentration [9]: 223 ± 54 nmol/g wet weight of tissue | (HO)2HSPM concentration [9]: 60 ± 9 nmol/g wet weight of tissue | PUT concentration [9]: 50 ± 7 nmol/g wet weight of tissue | SPD concentration [9]: 6343 ± 596 nmol/g wet weight of tissue | SPM concentration [9]: 1476 nmol/g wet weight of tissue and 1476 ± 101 nmol/g wet weight of tissue | (HO)2DEHSPM 4HCl Salt concentration [10]: 209 ± 37 nmol/g wet weight of tissue | (HO)2HSPM concentration [10]: 58 ± 14 nmol/g wet weight of tissue | PUT concentration [10]: 36 ± 5 nmol/g wet weight of tissue | SPD concentration [10]: 6386 ± 309 nmol/g wet weight of tissue | SPM concentration [10]: 1177 nmol/g wet weight of tissue and 1177 ± 161 nmol/g wet weight of tissue

CCNCCC(O)CNCCCCNCC(O)CCNCC.CS(=O)(=O)O.CS(=O)(=O)O.CS(=O)(=O)O.CS(=O)(=O)O (stereo not shown) [(HO)2DEHSPM Mesylate Salt]
(HO)2DEHSPM Mesylate concentration [11]: 541 ± 65 nmol/g wet weight of tissue | (HO)2HSPM concentration [11]: 77 ± 6 nmol/g wet weight of tissue | PUT concentration [11]: 7 ± 12 nmol/g wet weight of tissue | SPD concentration [11]: 404 ± 24 nmol/g wet weight of tissue | SPM concentration [11]: 680 nmol/g wet weight of tissue and 680 ± 15 nmol/g wet weight of tissue | (HO)2DEHSPM Mesylate concentration [12]: 533 ± 84 nmol/g wet weight of tissue | (HO)2HSPM concentration [12]: 89 ± 14 nmol/g wet weight of tissue | PUT concentration [12]: 0 ± 0 nmol/g wet weight of tissue | SPD concentration [12]: 265 ± 5 nmol/g wet weight of tissue | SPM concentration [12]: 655 nmol/g wet weight of tissue and 655 ± 41 nmol/g wet weight of tissue | (HO)2DEHSPM Mesylate concentration [13]: 360 ± 43 nmol/g wet weight of tissue | (HO)2HSPM concentration [13]: 97 ± 5 nmol/g wet weight of tissue | PUT concentration [13]: 26 ± 5 nmol/g wet weight of tissue | SPD concentration [13]: 239 ± 9 nmol/g wet weight of tissue | SPM concentration [13]: 601 nmol/g wet weight of tissue and 601 ± 29 nmol/g wet weight of tissue | (HO)2DEHSPM Mesylate concentration [14]: 168 ± 32 nmol/g wet weight of tissue | (HO)2HSPM concentration [14]: 79 ± 7 nmol/g wet weight of tissue | PUT concentration [14]: 0 ± 0 nmol/g wet weight of tissue | SPD concentration [14]: 1044 ± 177 nmol/g wet weight of tissue | SPM concentration [14]: 908 nmol/g wet weight of tissue and 908 ± 55 nmol/g wet weight of tissue | (HO)2DEHSPM Mesylate concentration [15]: 135 ± 3 nmol/g wet weight of tissue | (HO)2HSPM concentration [15]: 116 ± 15 nmol/g wet weight of tissue | PUT concentration [15]: 0 ± 0 nmol/g wet weight of tissue | SPD concentration [15]: 1108 ± 146 nmol/g wet weight of tissue | SPM concentration [15]: 987 nmol/g wet weight of tissue and 987 ± 49 nmol/g wet weight of tissue | (HO)2DEHSPM Mesylate concentration [16]: 73 ± 11 nmol/g wet weight of tissue | (HO)2HSPM concentration [16]: 88 ± 5 nmol/g wet weight of tissue | PUT concentration [16]: 0 ± 0 nmol/g wet weight of tissue | SPD concentration [16]: 910 ±10 nmol/g wet weight of tissue | SPM concentration [16]: 807 nmol/g wet weight of tissue and 807 ± 138 nmol/g wet weight of tissue | (HO)2DEHSPM Mesylate concentration [17]: 131 ± 27 nmol/g wet weight of tissue | (HO)2HSPM concentration [17]: 50 ± 6 nmol/g wet weight of tissue | PUT concentration [17]: 36 ± 10 nmol/g wet weight of tissue | SPD concentration [17]: 5717 ± 426 nmol/g wet weight of tissue | SPM concentration [17]: 1108 nmol/g wet weight of tissue and 1108 ± 15 nmol/g wet weight of tissue | (HO)2DEHSPM Mesylate concentration [18]: 153 ± 11 nmol/g wet weight of tissue | (HO)2HSPM concentration [18]: 70 ± 2 nmol/g wet weight of tissue | PUT concentration [18]: 57 ± 15 nmol/g wet weight of tissue | SPD concentration [18]: 6460 ± 280 nmol/g wet weight of tissue | SPM concentration [18]: 1333 nmol/g wet weight of tissue and 1333 ± 103 nmol/g wet weight of tissue | (HO)2DEHSPM Mesylate concentration [19]: 134 ± 14 nmol/g wet weight of tissue | (HO)2HSPM concentration [19]: 75 ± 4 nmol/g wet weight of tissue | PUT concentration [19]: 31 ± 3 nmol/g wet weight of tissue | SPD concentration [19]: 6147 ± 223 nmol/g wet weight of tissue | SPM concentration [19]: 1273 ± 210 nmol/g wet weight of tissue
